Data taken from US20260061085A1, “CYCLIC PEPTIDE AND PREPARATION METHOD THEREFOR, AND COMPLEX COMPRISING SAME AND USE THEREOF” (HEXIN (SUZHOU) PHARMACEUTICAL TECHNOLOGY CO., LTD., priority 2022, published 2026).
Each block holds one molecule with its values, some of them ahead of it. Square brackets hold non-standard residues; d marks the D form. Peptide text beside a SMILES is read from it. NMeN = CN[C@@H](CC(N)=O)C(=O)O; Orn = NCCC[C@H](N)C(=O)O; Dab = NCC[C@H](N)C(=O)O; Sar = CNCC(=O)O

Experiments:
[1] = Stability by in vitro constant temperature (37° C.) incubation in mouse plasma, LC-MS/MS; format: in vitro ADME
Protocol: (§1) The experiment was carried out by using an in vitro constant temperature (37° C.) incubation method to study the stability of the cyclic peptide APN21 of Example 21 and the cyclic peptide KE5 of Comparative Example 1 in mouse plasma or PBS (1.0 μg/mL). The two cyclic peptides were dissolved in 1 mL of mouse […], respectively, and incubated at 37° C. for 0 h, 0.5 h, 1 h, 4 h, 24 h, and 48 h, and a percentage of drug remaining was then measured and determined. PBS was used as a negative control group. Peak areas of the drug and an internal standard were measured using an LC-MS/MS method, and ratios of the peaks were used instead of the drug concentration for calculation.

[2] = Stability by in vitro constant temperature (37° C.) incubation in PBS, LC-MS/MS; format: physicochemical
Protocol: as §1

[3] = test system: HT-1080 tumor-bearing mice; assay: Small-animal PET/CT imaging of HT-1080 tumor-bearing mice with CD13 blocking; format: in vivo; conditions: co-injected with unlabeled NGR peptide 15 mg/kg, tail vein, 0.5, 1 and 2 hours after injection, versus unblocked APN21 Group
Protocol: HT-1080 cells were taken from normal NCr nude mice (18-25 g, 4-6 weeks old, n=3), and 2λ10^6 cells were implanted subcutaneously in right shoulders of mice in a mixture of 200 μL phosphate buffer and matrix gel (v/v, 1/1). […] PET/CT and image analysis were performed using a small-animal NovclMedcal PET/CT scanner (Novel Medical Equipment Ltd., Beijing). Maximum tangential and radial half-widths of the scanner in a center of field of view were 1.5 mm, and at an edge of the field of view were 1.8 mm. […] Static PET/CT images were obtained for 15 min at 0.5, 1, and 2 hours after intravenous injection. […] Static PET/CT images were obtained for 15 min at 0.5, 1, and 2 hours after intravenous injection. […] Static PET/CT images were obtained for 15 min at 0.5, 1, and 2 hours after intravenous injection. […] […] PET and CT images were acquired using NMSoft workstation software (Novel Medical Equipment Ltd., Beijing), and data were given as a percentage of injected dose per gram of tissue or organ (ID/g), and were determined through decay correction for each sample (standardized to a known weight of the injected dose).

HT-1080 cells = assay: Relative cell uptake of Cy3 fluorescent peptides by HT-1080 cells; format: cell-based, human; conditions: Cy3 fluorescent peptide, 37° C. 30 min, multiple of KE5-Cy3 uptake taken as 1.00
Protocol: The binding affinity of the polypeptides in the examples and comparative examples to an HT-1080 cell line was identified through cell uptake studies.
The human fibrosarcoma cell line HT-1080 was cultured in Dulbecco's Modified Eagle Medium (DMEM) (Gibco) mixed with 10% sterile filtered fetal bovine serum (FBS) and 1% penicillin-streptomycin antibiotic solution. The cell culture was maintained in a controlled environment at 37° C. and 5% CO2, and subculture was performed every 3-4 days. 24 hours prior to the experiment, cells were seeded in a 96-well plate (5000 cells per well) and cultured overnight until the cells adhered to a wall. Before the experiment, cells were washed twice with […] of phosphate-buffered saline (PBS) to remove a growth medium.
Purification is performed through HPLC.
HT-1080 cells were treated with KE5-Cy3 fluorescent peptide of Comparative Example 1.
(§2) After incubation at 37° C. for 30 min, the cells were washed twice with PBS, an intracellular fluorescence intensity was measured using a fluorescence microplate reader (with an […]) to evaluate the uptake of KE5-Cy3 fluorescent peptide by HT-1080 cells.
(§3) 10 μL of CCK-8 were added to each group of cells and incubated for 4 h, the cells were then read using a microplate reader (with a wavelength of 490 nm), and errors in fluorescence intensity of each group of cells caused by difference in a number of cells was corrected by CCK-8.
Each group was subjected to the above operation three times to determine an optimal concentration for the uptake of KE5-Cy3 fluorescent peptide by HT-1080 cells.
(§4) HT-1080 cells were treated with the APN-Cy3 fluorescent peptide of each of the Examples, wherein a concentration of each APN-Cy3 fluorescent peptide was an optimal concentration determined by KE5-Cy3 fluorescent peptides of Comparative Example 1 according to the uptake by the HT-1080 cells.
as §2, with “APN-Cy3” for “KE5-Cy3”
A relative cell uptake (RCU) for each APN-Cy3 fluorescent peptide relative to the KE5-Cy3 fluorescent peptide was calculated using the following formula: […]

[4] = biological target: T1, Aminopeptidase N (APN, also known as CD13) (human, UniProt P15144 2-967); assay: Cy3 fluorescence uptake by HT-1080 cells, 37 C 30 min, microplate reader, CCK-8 corrected, relative to KE5-Cy3
T1 construct: whole, on cells; The assay itself used HT-1080 cells (endogenous expression, not transfected); also called CD13 protein; CD13 receptor
T1 sequence (P15144 2-967): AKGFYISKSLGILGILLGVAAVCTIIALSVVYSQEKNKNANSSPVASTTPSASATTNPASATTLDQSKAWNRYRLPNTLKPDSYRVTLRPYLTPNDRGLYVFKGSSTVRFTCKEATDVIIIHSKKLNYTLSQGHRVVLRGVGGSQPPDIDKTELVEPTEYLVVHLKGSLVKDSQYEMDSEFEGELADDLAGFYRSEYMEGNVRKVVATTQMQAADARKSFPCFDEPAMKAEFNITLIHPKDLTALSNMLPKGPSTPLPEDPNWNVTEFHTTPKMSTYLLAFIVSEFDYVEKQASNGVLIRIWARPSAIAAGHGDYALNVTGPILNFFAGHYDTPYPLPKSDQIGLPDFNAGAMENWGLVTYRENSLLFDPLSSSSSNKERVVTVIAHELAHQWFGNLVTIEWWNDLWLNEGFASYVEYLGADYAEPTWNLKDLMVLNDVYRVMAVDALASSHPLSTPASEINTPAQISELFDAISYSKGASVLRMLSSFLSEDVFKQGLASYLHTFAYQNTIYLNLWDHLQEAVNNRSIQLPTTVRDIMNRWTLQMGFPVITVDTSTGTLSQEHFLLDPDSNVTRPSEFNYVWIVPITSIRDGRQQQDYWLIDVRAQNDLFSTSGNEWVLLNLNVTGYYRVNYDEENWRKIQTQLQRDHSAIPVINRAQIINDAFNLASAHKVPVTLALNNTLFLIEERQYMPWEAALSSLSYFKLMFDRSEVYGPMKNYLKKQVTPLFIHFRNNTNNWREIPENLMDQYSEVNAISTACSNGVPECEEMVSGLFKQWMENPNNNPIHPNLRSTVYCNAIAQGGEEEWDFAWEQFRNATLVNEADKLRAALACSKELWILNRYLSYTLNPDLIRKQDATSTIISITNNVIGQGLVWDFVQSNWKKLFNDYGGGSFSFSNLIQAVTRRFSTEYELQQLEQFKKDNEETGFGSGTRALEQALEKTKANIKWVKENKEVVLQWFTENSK
Protocol: as §4
as §2, with “APN-Cy3” for “KE5-Cy3”
as §3

[5] = 0.5 h, read-out: percentage of drug remaining
[6] = 1 h, read-out: percentage of drug remaining
[7] = 4 h, read-out: percentage of drug remaining
[8] = 24 h, read-out: percentage of drug remaining
[9] = 48 h, read-out: percentage of drug remaining

percentage of drug remaining ([1]; 0 h): 100%
remaining at 0.5 h, 1 μg/mL [1, 5]: 94.8%
remaining at 1 h, 1 μg/mL [1, 6]: 89.4%
remaining at 4 h, 1 μg/mL [1, 7]: 80.2%
remaining at 24 h, 1 μg/mL [1, 8]: 39.8%
remaining at 48 h, 1 μg/mL [1, 9]: 12.4%
percentage of drug remaining ([2]; 0 h): 100%
remaining at 0.5 h, 1 μg/mL [2, 5]: 99.1%
remaining at 1 h, 1 μg/mL [2, 6]: 96.6%
remaining at 4 h, 1 μg/mL [2, 7]: 91.4%
remaining at 24 h, 1 μg/mL [2, 8]: 73.4%
remaining at 48 h, 1 μg/mL [2, 9]: 42.7%
Molecule: N=C(N)NCCC[C@@H]1NC(=O)CNC(=O)[C@H](CC(N)=O)NC(=O)[C@H](CCCCN)NC(=O)[C@H](CCC(=O)O)NC1=O [Comparative Example 1, cyclo(NGREK), reference compound] (cyclo(EKNGR))

Molecule: ^68Ga-APN21-Bn-SCN-NOTA: ^68Ga-labelled conjugate of cyclic peptide APN21 (Example 21) with NOTA-Bn-SCN chelator (cyclo(N[Sar]RTKY); not fully specified (residue 5); also: 68Ga-NOTA-Bn-SCN chelator conjugated, site not given here)
PET/CT signal intensity (tumor uptake) in APN21-Blocking Group [3]: significantly weaker than that of the unblocked APN21 group

Molecule: cyclo(NGRDK) (cyclic; circular) [Example 1]
RCU (relative cell uptake) (HT-1080 cells): 0.65

Molecule: cyclo(NGRTCE) (cyclic; circular) [Example 10]
RCU (relative cell uptake) (HT-1080 cells): 0.77

Molecule: cyclo(NGRTCF) (cyclic; circular) [Example 12]
RCU (relative cell uptake) (HT-1080 cells): 0.82

Molecule: cyclo(NGRTCG) (cyclic; circular) [Example 13]
RCU (relative cell uptake) (HT-1080 cells): 0.49

Molecule: cyclo(NGRTCV) (cyclic; circular) [Example 11]
RCU (relative cell uptake) (HT-1080 cells): 0.92

Molecule: cyclo(NGRTCY) (cyclic; circular) [Example 14]
RCU (relative cell uptake) (HT-1080 cells): 1.05

Molecule: cyclo(NGRTKF) (cyclic; circular) [Example 7]
RCU (relative cell uptake) (HT-1080 cells): 0.56

Molecule: cyclo(NGRTKG) (cyclic; circular) [Example 8]
RCU (relative cell uptake) (HT-1080 cells): 1.14

Molecule: cyclo(NGRTKf) (cyclo(NGRTK[dF]); SMILES C[C@@H](O)[C@@H]1NC(=O)[C@H](CCCNC(=N)N)NC(=O)CNC(=O)[C@H](CC(N)=O)NC(=O)[C@@H](Cc2ccccc2)NC(=O)[C@H](CCCCN)NC1=O) [Example 17]
RCU (relative cell uptake) (HT-1080 cells): 0.49

Molecule: cyclo(NSarRTDabY) (cyclo(N[Sar]RT[Dab]Y); SMILES C[C@@H](O)[C@@H]1NC(=O)[C@H](CCCNC(=N)N)NC(=O)CN(C)C(=O)[C@H](CC(N)=O)NC(=O)[C@H](Cc2ccc(O)cc2)NC(=O)[C@H](CCN)NC1=O) [Example 24]
RCU (relative cell uptake) (HT-1080 cells): 0.57

Molecule: cyclo(NSarRTOrnY) (cyclo(N[Sar]RT[Orn]Y); SMILES C[C@@H](O)[C@@H]1NC(=O)[C@H](CCCNC(=N)N)NC(=O)CN(C)C(=O)[C@H](CC(N)=O)NC(=O)[C@H](Cc2ccc(O)cc2)NC(=O)[C@H](CCCN)NC1=O) [Example 23]
RCU (relative cell uptake) (HT-1080 cells): 1.20

Molecule: cyclo(NSarRTcY) (cyclo(N[Sar]RT[dC]Y); SMILES C[C@@H](O)[C@@H]1NC(=O)[C@H](CCCNC(=N)N)NC(=O)CN(C)C(=O)[C@H](CC(N)=O)NC(=O)[C@H](Cc2ccc(O)cc2)NC(=O)[C@@H](CS)NC1=O) [Example 25]
RCU (relative cell uptake) (HT-1080 cells): 0.72

Molecule: cyclo(NmeGRTDabY) (cyclo([NMeN]GRT[Dab]Y); SMILES C[C@@H](O)[C@@H]1NC(=O)[C@H](CCCNC(=N)N)NC(=O)CNC(=O)[C@H](CC(N)=O)N(C)C(=O)[C@H](Cc2ccc(O)cc2)NC(=O)[C@H](CCN)NC1=O) [Example 26]
RCU (relative cell uptake) (HT-1080 cells): 0.41

Molecule: cyclo(NmeGRTKY) (cyclo([NMeN]GRTKY); SMILES C[C@@H](O)[C@@H]1NC(=O)[C@H](CCCNC(=N)N)NC(=O)CNC(=O)[C@H](CC(N)=O)N(C)C(=O)[C@H](Cc2ccc(O)cc2)NC(=O)[C@H](CCCCN)NC1=O) [Example 20]
RCU (relative cell uptake) (HT-1080 cells): 0.78

Molecule: cyclo(NmeGRTOrnY) (cyclo([NMeN]GRT[Orn]Y); SMILES C[C@@H](O)[C@@H]1NC(=O)[C@H](CCCNC(=N)N)NC(=O)CNC(=O)[C@H](CC(N)=O)N(C)C(=O)[C@H](Cc2ccc(O)cc2)NC(=O)[C@H](CCCN)NC1=O) [Example 27]
RCU (relative cell uptake) (HT-1080 cells): 0.37

Molecule: cyclo(NmeGRTcY) (cyclo([NMeN]GRT[dC]Y)) [Example 28]
RCU (relative cell uptake) (HT-1080 cells): 0.62

RCU (relative cell uptake, KE5-Cy3 = 1.00) [4]: 5.68 fold of KE5-Cy3
B1: APN21-Cy3 fluorescent peptide (Example 21) (peptide)
peptide: cyclo(N[Sar]RTKY)
modifications: not fully specified (residue 5); also: Cy3 dye attached via Cy3-NHS, site not given here
notes: also called cyclo(NSarRTKY)
